Laboratory results as given in ChEMBL document CHEMBL4229569, “Structure-Based Design of 1-Heteroaryl-1,3-propanediamine Derivatives as a Novel Series of CC-Chemokine Receptor 5 Antagonists” (J Med Chem, 2018).

Assays:
Conditions in all cases: recombinant enzyme
[1] = Drug level in human liver cells assessed as CYP450-mediated compound formation treated with 4,4-Difluoro-N-(3-((1R,3S,5S)-3-(3-isopropyl-5-methyl-4H-1,2,4-triazol-4-yl)-8-azabicyclo[3.2.1]octan-8-yl)-1-(thiophen-3-yl)-propyl)cyclohexane-1-carboxamide by UPLC/Q-TOF mass spectrometric analysis; format: ADME, cell-based
[2] = Drug level in dog liver cells assessed as CYP450-mediated compound formation treated with 4,4-Difluoro-N-(3-((1R,3S,5S)-3-(3-isopropyl-5-methyl-4H-1,2,4-triazol-4-yl)-8-azabicyclo[3.2.1]octan-8-yl)-1-(thiophen-3-yl)-propyl)cyclohexane-1-carboxamide by UPLC/Q-TOF mass spectrometric analysis; format: ADME, cell-based, Canis lupus familiaris
[3] = Drug level in rat liver cells assessed as CYP450-mediated compound formation treated with 4,4-Difluoro-N-(3-((1R,3S,5S)-3-(3-isopropyl-5-methyl-4H-1,2,4-triazol-4-yl)-8-azabicyclo[3.2.1]octan-8-yl)-1-(thiophen-3-yl)-propyl)cyclohexane-1-carboxamide by UPLC/Q-TOF mass spectrometric analysis; format: ADME, cell-based
[4] = Drug level in mouse liver cells assessed as CYP450-mediated compound formation treated with 4,4-Difluoro-N-(3-((1R,3S,5S)-3-(3-isopropyl-5-methyl-4H-1,2,4-triazol-4-yl)-8-azabicyclo[3.2.1]octan-8-yl)-1-(thiophen-3-yl)-propyl)cyclohexane-1-carboxamide by UPLC/Q-TOF mass spectrometric analysis; format: ADME, cell-based
[5] = Drug level in rat liver cells assessed as CYP450-mediated compound formation treated with maraviroc by Q-TOF mass spectrometric analysis; format: ADME, cell-based
[6] = Drug level in dog liver cells assessed as CYP450-mediated compound formation treated with maraviroc by Q-TOF mass spectrometric analysis; format: ADME, cell-based, Canis lupus familiaris
[7] = Drug level in human liver cells assessed as CYP450-mediated compound formation treated with maraviroc by Q-TOF mass spectrometric analysis; format: ADME, cell-based

Measured: Drug uptake

Cc1nnc(C(C)C)n1[C@@H]1C[C@H]2CC[C@@H](C1)N2CC[C@H](NC(=O)C1CCC(F)CC1)c1ccsc1 (some centres not stated)
Active: all assays above
